The results in this text go back to patent US8791113B2, “2,4-diaryl-substituted [1,8] naphthyridines as kinase inhibitors for use against cancer” (Merck Patent GmbH, priority 2010, dated 2014).

Each structure is given as a SMILES string. Bounds are passed on as bounds.

Experiment [1] relates to TGF-beta-induced phosphorylation of Smad2 (Ser465/467) and Smad3 (Ser423/425) in Mv1-Lu cells. Kind of experiment: Inhibition of Smad2/3 phosphorylation in Mv1Lu cells (PathScan Phospho-Smad2 ELISA). It counts as cell-based, mink Mustela vison. As to conditions: Neogale vison, Mv1-Lu cells, TGF-beta 1 5 ng/ml, Phospho-Smad2/3 ELISA, read-out: TβR activity (Example 51). The method, boiled down:
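Serum-starved mink Mv1-Lu lung epithelial cells were pretreated with compound for 1.5 h, then stimulated 1 h with 5 ng/ml TGF-beta 1 (0.2% DMSO). Phospho-Smad2/3 in lysates was quantified by ELISA against stimulated and unstimulated controls. IC50 was taken from dose-response fits.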

Experiment [2] addresses T1, GST-ALK5 (TGF-beta receptor kinase) (Homo sapiens, UniProt P36897).
T1 sequence (P36897 34-503): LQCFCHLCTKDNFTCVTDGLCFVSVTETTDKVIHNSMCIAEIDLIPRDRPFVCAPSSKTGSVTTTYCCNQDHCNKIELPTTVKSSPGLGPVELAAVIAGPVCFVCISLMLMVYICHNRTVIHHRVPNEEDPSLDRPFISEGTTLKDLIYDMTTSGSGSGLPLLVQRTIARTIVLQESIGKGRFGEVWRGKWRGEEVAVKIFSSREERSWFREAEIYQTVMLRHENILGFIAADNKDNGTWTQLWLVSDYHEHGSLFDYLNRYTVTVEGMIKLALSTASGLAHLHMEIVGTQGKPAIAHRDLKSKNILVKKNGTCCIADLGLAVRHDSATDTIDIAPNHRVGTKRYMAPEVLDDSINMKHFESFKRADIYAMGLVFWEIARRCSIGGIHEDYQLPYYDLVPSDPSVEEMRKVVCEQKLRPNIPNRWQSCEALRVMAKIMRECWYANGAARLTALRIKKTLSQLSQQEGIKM
Nature of the experiment: In-vitro (enzyme) kinase flashplate assay: GST-ALK5 phosphorylation of GST-SMAD2 with 33P-ATP. It counts as biochemical. The conditions noted are these: 384-well flashplate kinase assay, GST-ALK5 / GST-SMAD2, 33P-ATP, 30° C., 45 min; read-out: TβR activity (Example 50). The method, boiled down: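 Flashplate format: 31.2 nM GST-ALK5, 439 nM GST-SMAD2, 3 mM ATP with 33P-ATP in HEPES/MgCl2/MnCl2/DTT/BSA buffer, pH 7.4, 45 min at 30 °C, 5–10 compound concentrations. EDTA stop, saline washes, radioactivity counted. IC50 calculated from the counts.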

On to `Fc1ccc(Cl)cc1-c1cc(-c2nccc3cnccc23)c2cccnc2n1` [Compound 35, 2-(5-Chloro-2-fluoro-phenyl)-4-[2,6]naphthyridin-1-yl-[1,8]naphthyridine], for which the IC50 in experiment [1] and in experiment [2] was less than 1000 nM throughout.

In the case of `COc1nccc2c(-c3cc(-c4ccccc4F)nc4ncccc34)nccc12` [Compound 40, 2-(2-Fluoro-phenyl)-4-(5-methoxy-[2,6]naphthyridin-1-yl)-[1,8]naphthyridine], the IC50 in experiment [1] and in experiment [2] was greater than 10000 nM throughout.

For the molecule `Cn1cc(-c2cc(-c3cc(Cl)ccc3F)nc3ncccc23)c2ccncc2c1=O` [Compound 74, 4-[2-(5-Chloro-2-fluoro-phenyl)-[1,8]naphthyridin-4-yl]-2-methyl-2H-[2,7]naphthyridin-1-one], the IC50 in experiment [1] and in experiment [2] was less than 1000 nM in each case.

Regarding `Fc1ccc(Cl)cc1-c1cc(-c2ncnc3cnccc23)c2cccnc2n1` [Compound 24, 4-[2-(5-Chloro-2-fluoro-phenyl)-[1,8]naphthyridin-4-yl]-pyrido[3,4-d]pyrimidine], the IC50 is 1000 to 10000 nM in experiment [1] and less than 1000 nM in experiment [2].

Consider `Fc1ccc(Cl)cc1-c1cc(-c2coc3cnccc23)c2cccnc2n1` [Compound 12, 2-(5-Chloro-2-fluoro-phenyl)-4-furo[2,3-c]pyridin-3-yl-[1,8]naphthyridine], for which the IC50 in experiment [1] and in experiment [2] was less than 1000 nM each time.

`Fc1ccc(Cl)cc1-c1cc(-c2cc(OCCN3CCOCC3)nc3cnccc23)c2cccnc2n1` [Compound 112, 4-[2-(5-Chloro-2-fluoro-phenyl)-[1,8]naphthyridin-4-yl]-2-(2-morpholin-4-yl-ethoxy)-[1,7]naphthyridine]: the IC50 in experiment [1] and in experiment [2] was less than 1000 nM each time.

Take `Nc1ccc2c(-c3cccc4c(N)nccc34)cc(-c3ccccc3F)nc2n1` [Compound 117, 5-(1-Amino-isoquinolin-5-yl)-7-(2-fluoro-phenyl)-[1,8]naphthyridin-2-ylamine]: the IC50 in experiment [1] and in experiment [2] was less than 1000 nM each time.
